Results published in patent publication US6743802B2, “Alkyne-aryl phosphodiesterase-4 inhibitors” (Merck Frosst Canada & Co., priority 2001, dated 2004).

System: TNF-α and LTB4
Test: LPS and FMLP-induced TNF-α and LTB4 assays in human whole blood
Type: cell-based
Details: LPS 1 μg/mL 24 h, then LPS and fMLP 1 μM challenge, marker (TNF-α or LTB4) not specified
Procedure: Whole blood provides a protein and cell-rich milieu appropriate for the study of biochemical efficacy of anti-inflammatory compounds such as PDE4-selective inhibitors. […] Upon stimulation with LPS, activated monocytes express and secrete TNF-α up to 8 hours and plasma levels remain stable for 24 hours. Published studies have shown that inhibition of TNF-α by increasing intracellular cAMP via PDE4 inhibition and/or enhanced adenylyl cyclase activity occurs at the transcriptional level. […] As there is little LTB4 produced during a 24 hour LPS stimulation of whole blood, an additional LPS stimulation followed by fMLP challenge of human whole blood is necessary for LTB4 synthesis by activated neutrophils. Thus, by using the same blood sample, it is possible to evaluate the potency of a compound on two surrogate markers of PDE4 activity in the whole blood by the following procedure.
Fresh blood was collected in heparinized tubes by venipuncture from healthy human volunteers (male and female). These subjects had no apparent inflammatory conditions and had not taken any NSAIDs for at least 4 days prior to blood collection. 500 μL aliquots of blood were pre-incubated with either 2 μL of vehicle (DMSO) or 2 μL of test compound at varying concentrations for 15 minutes at 37° C. […]

IC50: 10 to 2400 nM
SMILES: CC(C)NC(=O)c1cn(-c2cccc(C#Cc3cccc(C(C)(C)O)n3)c2)c2ncccc2c1=O [Example 28, N-Isopropyl-1-{3-[6-(1-hydroxy-1-methylethyl)-2-pyridinylethynyl]phenyl}-1,4-dihydro [1,8]naphthyridin-4-one-3-carboxamide]
